Experiments:
PIK3CG (human) = PIK3CG (human) (UniProt P48736); assay: Assessment of PI3KCG Kinase Activity
PIK3CD (Human) = PIK3CD (Human) (UniProt O00329); assay: Assessment of PI3KCD Kinase Activity
Chain of PIK3CD (Human) (O00329 whole entry, looked up): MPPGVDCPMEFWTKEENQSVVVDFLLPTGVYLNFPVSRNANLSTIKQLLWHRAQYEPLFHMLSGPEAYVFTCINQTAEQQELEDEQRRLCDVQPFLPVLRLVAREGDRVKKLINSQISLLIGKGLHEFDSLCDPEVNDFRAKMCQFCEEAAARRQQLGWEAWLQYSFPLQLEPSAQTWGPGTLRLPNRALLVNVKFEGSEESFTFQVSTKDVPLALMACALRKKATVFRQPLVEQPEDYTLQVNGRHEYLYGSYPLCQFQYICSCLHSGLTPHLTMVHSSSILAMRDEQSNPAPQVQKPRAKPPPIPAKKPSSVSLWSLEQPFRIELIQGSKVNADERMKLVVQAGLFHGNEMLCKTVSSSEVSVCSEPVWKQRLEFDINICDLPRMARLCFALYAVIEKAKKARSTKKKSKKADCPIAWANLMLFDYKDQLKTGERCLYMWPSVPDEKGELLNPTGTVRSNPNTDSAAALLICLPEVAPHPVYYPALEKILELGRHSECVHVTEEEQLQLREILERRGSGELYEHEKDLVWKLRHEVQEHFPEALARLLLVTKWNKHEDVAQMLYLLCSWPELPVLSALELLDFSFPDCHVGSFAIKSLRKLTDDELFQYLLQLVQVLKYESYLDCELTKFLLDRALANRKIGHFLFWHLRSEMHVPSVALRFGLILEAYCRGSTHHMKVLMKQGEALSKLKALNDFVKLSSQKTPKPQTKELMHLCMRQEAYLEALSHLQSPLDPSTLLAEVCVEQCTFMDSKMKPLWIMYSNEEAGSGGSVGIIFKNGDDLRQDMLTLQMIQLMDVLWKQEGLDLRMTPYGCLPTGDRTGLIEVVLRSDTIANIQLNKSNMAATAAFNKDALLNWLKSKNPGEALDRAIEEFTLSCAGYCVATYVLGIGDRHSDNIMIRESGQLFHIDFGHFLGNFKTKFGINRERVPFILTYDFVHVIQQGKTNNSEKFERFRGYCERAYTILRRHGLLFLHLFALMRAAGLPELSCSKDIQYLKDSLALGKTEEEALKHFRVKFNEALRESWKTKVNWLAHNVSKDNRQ

Chain of PIK3CG (human) (P48736 whole entry, looked up): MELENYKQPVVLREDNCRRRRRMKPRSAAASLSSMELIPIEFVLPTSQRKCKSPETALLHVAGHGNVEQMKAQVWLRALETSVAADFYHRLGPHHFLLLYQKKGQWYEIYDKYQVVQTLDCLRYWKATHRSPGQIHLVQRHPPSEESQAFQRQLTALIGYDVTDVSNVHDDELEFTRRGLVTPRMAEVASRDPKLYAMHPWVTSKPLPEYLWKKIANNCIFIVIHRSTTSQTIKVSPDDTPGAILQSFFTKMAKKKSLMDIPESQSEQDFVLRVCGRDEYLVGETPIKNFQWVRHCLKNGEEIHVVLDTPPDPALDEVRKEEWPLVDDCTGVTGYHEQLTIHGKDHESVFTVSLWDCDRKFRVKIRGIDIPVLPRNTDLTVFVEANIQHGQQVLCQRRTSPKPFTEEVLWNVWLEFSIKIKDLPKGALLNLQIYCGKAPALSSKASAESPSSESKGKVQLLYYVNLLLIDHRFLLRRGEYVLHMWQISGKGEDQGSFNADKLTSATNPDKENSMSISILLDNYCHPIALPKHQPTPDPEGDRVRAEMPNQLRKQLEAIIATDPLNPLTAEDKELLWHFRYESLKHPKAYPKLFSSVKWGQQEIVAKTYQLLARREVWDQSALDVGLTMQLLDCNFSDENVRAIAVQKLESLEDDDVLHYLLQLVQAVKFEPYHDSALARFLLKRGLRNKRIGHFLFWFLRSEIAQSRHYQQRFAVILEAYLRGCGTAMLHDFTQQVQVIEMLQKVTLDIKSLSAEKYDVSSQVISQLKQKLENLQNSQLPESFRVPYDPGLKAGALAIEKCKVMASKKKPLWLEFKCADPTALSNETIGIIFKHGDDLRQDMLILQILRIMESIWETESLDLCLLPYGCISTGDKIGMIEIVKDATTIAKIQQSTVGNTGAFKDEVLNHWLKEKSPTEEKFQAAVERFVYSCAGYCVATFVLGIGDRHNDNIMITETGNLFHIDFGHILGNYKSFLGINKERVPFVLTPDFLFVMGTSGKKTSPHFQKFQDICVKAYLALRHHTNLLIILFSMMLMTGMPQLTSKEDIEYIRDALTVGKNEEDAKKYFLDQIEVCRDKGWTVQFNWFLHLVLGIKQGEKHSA

## Cc1csc2nc(Cn3nc(Br)c4c(N)ncnc43)n(-c3ccccc3C(C)C)c(=O)c12
PIK3CG (human)
  IC50: < 100 nM
PIK3CD (Human)
  IC50: < 100 nM

## Cc1cccc2cc(Cn3nc(-c4ccc(F)c(O)c4)c4c(N)ncnc43)n(C3CCCC3)c(=O)c12
PIK3CG (human)
  IC50: < 100 nM
PIK3CD (Human)
  IC50: < 100 nM

## CCc1ccccc1-n1c(Cn2nc(-c3cn[nH]c3)c3c(N)ncnc32)cc2cccc(C)c2c1=O
PIK3CG (human)
  IC50: < 100 nM
PIK3CD (Human)
  IC50: < 100 nM

## Cc1cccnc1-n1c(Cn2nc(-c3ccc(Cl)c(O)c3)c3c(N)ncnc32)cc2cccc(C)c2c1=O
PIK3CG (human)
  IC50: < 100 nM
PIK3CD (Human)
  IC50: < 100 nM

## Cc1cccc2cc(Cn3nc(-c4cccc(O)c4)c4c(N)ncnc43)n(-c3ccccc3Cl)c(=O)c12
PIK3CG (human)
  IC50: < 100 nM
PIK3CD (Human)
  IC50: < 100 nM

## CCc1ccccc1-n1c(Cn2nc(I)c3c(N)ncnc32)cc2cccc(C)c2c1=O
PIK3CG (human)
  IC50: < 100 nM
PIK3CD (Human)
  IC50: < 100 nM

## Cc1ccccc1-n1c(Cn2nc(-c3ccc(O)c(Cl)c3)c3c(N)ncnc32)nc2scc(C)c2c1=O
PIK3CG (human)
  IC50: < 100 nM
PIK3CD (Human)
  IC50: < 100 nM

## COc1ccc(-c2nn(Cc3cc4cccc(C)c4c(=O)n3-c3ccccc3C)c3ncnc(N)c23)cc1OC
PIK3CG (human)
  IC50: < 100 nM

## Cc1ccccc1-n1c(Cn2nc(-c3ccn[nH]3)c3c(N)ncnc32)cc2cccc(C)c2c1=O
PIK3CG (human)
  IC50: < 100 nM

## Cc1ccccc1-n1c(Cn2nc(-c3ccc(O)cc3)c3c(N)ncnc32)cc2cccc(C)c2c1=O
PIK3CG (human)
  IC50: < 100 nM

## Cc1ccnc2cc(Cn3nc(-c4cc(O)cc(F)c4)c4c(N)ncnc43)n(-c3ccccc3F)c(=O)c12
PIK3CD (Human)
  IC50: < 100 nM

## Cc1cccc2cc(Cn3nc(-c4cccc(O)c4)c4c(N)ncnc43)n(C3CCCCC3)c(=O)c12
PIK3CD (Human)
  IC50: < 100 nM

## Cc1csc2nc(Cn3nc(I)c4c(N)ncnc43)n(-c3ccccc3F)c(=O)c12
PIK3CD (Human)
  IC50: < 100 nM

## Cc1ccccc1-n1c(Cn2nc(-c3cc(O)cc(F)c3)c3c(N)ncnc32)nc2cnn(C)c2c1=O
PIK3CD (Human)
  IC50: < 100 nM

## Cc1ccccc1-n1c(Cn2nc(-c3cc(O)cc(F)c3)c3c(N)ncnc32)nc2snc(C)c2c1=O
PIK3CD (Human)
  IC50: < 100 nM

## Cc1cccc2cc(Cn3nc(C#C[C@@H](C)O)c4c(N)ncnc43)n(C(C)C)c(=O)c12
PIK3CD (Human)
  IC50: < 100 nM

## Cc1cccnc1-n1c(Cn2nc(-c3cccc(O)c3)c3c(N)ncnc32)nc2scc(C)c2c1=O
PIK3CD (Human)
  IC50: < 100 nM

## Cc1csc2nc(Cn3nc(I)c4c(N)ncnc43)n(-c3ccccc3Cl)c(=O)c12
PIK3CD (Human)
  IC50: < 100 nM

## Cc1ccccc1-n1c(Cn2nc(C#C[C@@H](C)O)c3c(N)ncnc32)cc2nccc(C)c2c1=O
PIK3CD (Human)
  IC50: < 100 nM

## Cc1csc2nc(Cn3nc(-c4ccc(O)c(F)c4)c4c(N)ncnc43)n(-c3ccccc3F)c(=O)c12
PIK3CG (human)
  IC50: < 100 nM

## Cc1ccccc1-n1c(Cn2nc(I)c3c(N)ncnc32)cc2ccccc2c1=O
PIK3CG (human)
  IC50: < 100 nM

## Cc1csc2nc(Cn3nc(C#CCO)c4c(N)ncnc43)n(-c3ccccc3F)c(=O)c12
PIK3CD (Human)
  IC50: < 100 nM

## Cc1ccccc1-n1c(Cn2nc(-c3cc(O)cc(F)c3)c3c(N)nccc32)cc2cccc(C)c2c1=O
PIK3CD (Human)
  IC50: < 100 nM

## CC(=O)Nc1nc2ccc(-c3nn(Cc4cc5cccc(C)c5c(=O)n4-c4ccccc4C)c4ncnc(N)c34)cc2s1
PIK3CG (human)
  IC50: < 100 nM

## Cc1csc2nc(Cn3nc(-c4ccc(F)c(O)c4)c4c(N)ncnc43)n(-c3ccccc3F)c(=O)c12
PIK3CD (Human)
  IC50: < 100 nM

## Cc1cccc2cc(Cn3nc(C#C[C@@H](C)O)c4c(N)ncnc43)n(-c3ccccc3Cl)c(=O)c12
PIK3CD (Human)
  IC50: < 100 nM

## Nc1ncnc2c1c(I)nn2Cc1cc2cccc(Cl)c2c(=O)n1C1CC1
PIK3CD (Human)
  IC50: < 100 nM

## COc1ccccc1-n1c(Cn2nc(C#C[C@@H](C)O)c3c(N)ncnc32)cc2cccc(C)c2c1=O
PIK3CD (Human)
  IC50: < 100 nM

## Cc1csc2nc(Cn3nc(Br)c4c(N)ncnc43)n(-c3ccccc3Cl)c(=O)c12
PIK3CD (Human)
  IC50: < 100 nM

## Cc1cccc2cc(Cn3nc(-c4cn[nH]c4)c4c(N)ncnc43)n(-c3ccccc3Cl)c(=O)c12
PIK3CD (Human)
  IC50: < 100 nM

## Cc1cccc2cc(Cn3nc(C#C[C@@H](C)O)c4c(N)ncnc43)n(-c3ccccc3F)c(=O)c12
PIK3CD (Human)
  IC50: < 100 nM

## Cc1ccccc1-n1c(Cn2nc(-c3cccc(O)c3)c3c(N)ncnc32)nc2scc(C(F)(F)F)c2c1=O
PIK3CD (Human)
  IC50: < 100 nM

## CC(C)n1c(Cn2nc(-c3cc(O)cc(F)c3)c3c(N)ncnc32)cc2cccc(Cl)c2c1=O
PIK3CD (Human)
  IC50: < 100 nM

## COc1ccccc1-n1c(Cn2nc(Cl)c3c(N)ncnc32)nc2scc(C)c2c1=O
PIK3CD (Human)
  IC50: < 100 nM

## Cc1csc2nc(Cn3nc(Cl)c4c(N)ncnc43)n(-c3ccccc3C(F)(F)F)c(=O)c12
PIK3CD (Human)
  IC50: < 100 nM

## Cc1cccc2cc(Cn3nc(-c4cc(O)cc(F)c4)c4c(N)ncnc43)n(C3CCOCC3)c(=O)c12
PIK3CD (Human)
  IC50: < 100 nM

## COc1ccc(-c2nn(Cc3cc4cccc(C)c4c(=O)n3-c3ccccc3C)c3ncnc(N)c23)cc1
PIK3CG (human)
  IC50: < 100 nM

## C=Cc1nn(Cc2cc3cccc(C)c3c(=O)n2-c2ccccc2C)c2ncnc(N)c12
PIK3CD (Human)
  IC50: < 100 nM

## Cc1cccc2cc(Cn3nc(C#C[C@@H](C)O)c4c(N)ncnc43)n(C3CC3)c(=O)c12
PIK3CD (Human)
  IC50: < 100 nM

## Cc1ccccc1-n1c(Cn2nc(C#C[C@@H](C)O)c3c(N)ncnc32)cc2cccc(C)c2c1=O
PIK3CD (Human)
  IC50: < 100 nM

## Cc1ccccc1-n1c(Cn2nc(C#C[C@H](C)O)c3c(N)ncnc32)nc2scc(C)c2c1=O
PIK3CD (Human)
  IC50: < 100 nM

## Cc1csc2nc(Cn3nc(Br)c4c(N)ncnc43)n(-c3ccccc3C(F)(F)F)c(=O)c12
PIK3CD (Human)
  IC50: < 100 nM

## Cc1cccc2cc(Cn3nc(-c4ccc(O)c(Cl)c4)c4c(N)ncnc43)n(-c3ccccc3F)c(=O)c12
PIK3CG (human)
  IC50: < 100 nM

## Cc1ccccc1-n1c(Cn2nc(-c3cc(O)cc(F)c3)c3c(N)ncnc32)nc2c(C)nn(C)c2c1=O
PIK3CD (Human)
  IC50: < 100 nM

## CC(C)n1c(Cn2nc(-c3cc(O)cc(F)c3)c3c(N)ncnc32)cc2ccccc2c1=O
PIK3CD (Human)
  IC50: < 100 nM

## Nc1ncnc2c1c(-c1cccc(O)c1)nn2Cc1cc2cccc(Cl)c2c(=O)n1C1CC1
PIK3CD (Human)
  IC50: < 100 nM

## Cc1ccccc1-n1c(Cn2nc(-c3cc(O)cc(F)c3)c3c(N)ncnc32)nc2scc(C(F)(F)F)c2c1=O
PIK3CD (Human)
  IC50: < 100 nM

## Cc1ccccc1-n1c(Cn2nc(Cl)c3c(N)ncnc32)nc2nccc(C)c2c1=O
PIK3CD (Human)
  IC50: < 100 nM

## CCc1ccccc1-n1c(Cn2nc(C#C[C@@H](C)O)c3c(N)ncnc32)cc2cccc(C)c2c1=O
PIK3CD (Human)
  IC50: < 100 nM

From the Kinase Knowledgebase extract (Sharma et al. 2016)
